Assays:
[1] = test system: human gastric cancer cell line MKN-74; experiment: Ultrasonic treatment of SCID mice carrying subcutaneous MKN-74 cancer (Example 1); type: in vivo; conditions: DEG 5 μM + SONAZOID 16 μL in 300 μL saline, intratumoral; single treatment with low-intensity pulsed ultrasound 2 W/cm^2, 1 MHz, 50% duty cycle, 10 minutes; three weeks after treatment
Protocol: SCID mice as cancer-carrying animals were inoculated subcutaneously with human gastric cancer cell line MKN-74 which was in turn grown to a diameter of the cancer size of approximately 20 mm and then subjected to treatment by ultrasound waves. The ultrasonic treatment was carried out using the porphyrin derivative, [7,12-bis(1-(2-(2-hydroxyethoxy)ethoxy)ethyl)-3,8,13,17-tetramethylporphyrin-2,18-dipropionato]manganese (DEG), as the ultrasound-sensitive substance and an ultrasound contrast agent containing lipid stabilized perfluorobutane microbubbles in an aqueous solution (SONAZOID™) as the acoustic cavitation phenomenon-enhancing substance by irradiating the mice with low-intensity pulsed ultrasound waves of 2 W/cm^2 and 1 MHz under a condition of 50% duty cycle for 10 minutes. The ultrasonic treatment was performed by suspending 5 μM of the ultrasound sensitive substance and 16 μL of the acoustic cavitation phenomenon-enhancing substance in 300 μL of saline and irradiating the mice with the ultrasound waves immediately after intratumoral administration of the resulting suspension. The states of development of the cancer were observed immediately after ultrasonic treatment, one week and three weeks thereafter.

[2] = test system: human gastric cancer cell line MKN-74; experiment: Inhibitory effect on cancer at a specific site (subcutaneous tumor) of mice with MKN-74 tumor (Example 2); type: in vivo; conditions: DEG 5 μM in combination with Szd 16 μL in 200 μL PBS, intratumoral; ultrasound 1 W/cm^2, 1 MHz, 50% duty cycle, 10 minutes, three times on alternate days
Protocol: Mice were inoculated subcutaneously with ca. 5×10^6 cells of human gastric cancer cell line MKN-74 and a PBS suspension (200 μL) composed of the ultrasound-sensitive substance (DEG; 5 μM) and the acoustic cavitation phenomenon-enhancing substance (Szd; 16 μL) was administered intratumorally, followed by irradiating the mice with ultrasound waves of 1 W/cm^2 and 1 MHZ under a condition of 50% duty cycle for 10 minutes using Sonitron 100. The ultrasound waves were irradiated three times on alternate days. The results of the cancer sizes are shown by arrow mark (↑) in FIG. 4.

7,12-bis(1-(2-(2-hydroxyethoxy)ethoxy)ethyl)-3,8,13,17-tetra-methylporphyrin-2,18-dipropionato]manganese [DEG]
state of development of the cancer (tumor size) [1]: dramatic regression of the cancer
antitumor effect, one remaining case of three [2]: significant antitumor effect
antitumor effect, two cases out of three [2]: remarkable effects

— patent US9764029B2, “Tumor proliferation inhibitor containing ultrasound-sensitive substance and method for inhibiting tumor proliferation by using tumor proliferation inhibitor and low-intensity pulsed ultrasound waves” (Fukuoka University, priority 2010, dated 2017)
